Measurements taken from US4448714A, “Antibiotic polypeptide compounds prepared from staphlococcus bacteria” (priority 1979, dated 1984).

Tested on: S. Epidermidis NCIB 11536
Test: Antibiotic sensitivities of the producer strain (disc)
Assay type: cell-based
Details: 5 μg disc; strain characteristics table

CO[C@@H]1[C@@H](OC(N)=O)[C@@H](O)[C@H](Oc2ccc3c(O)c(NC(=O)c4ccc(O)c(CC=C(C)C)c4)c(=O)oc3c2C)OC1(C)C [novobiocin]
Novobiocin sensitivity: sensitive
